We go through twelve compounds from patent US4923986A, “Derivatives of physiologically active substance K-252” (Kyowa Hakko Kogyo Co., Ltd., priority 1988, dated 1990).

≈ marks a conversion by molar mass, not a printed value.

The first test concerns HeLaS3 cells. The test can be described thus: HeLaS3 cell growth inhibition test. The format is cell-based. The conditions noted are these: Homo sapiens, HeLa S3, 72 h, read-out: cell growth inhibitory activity IC50, HeLaS3. Here is the method:
(§1) Compound (I) was examined for C-kinase inhibitory activity and cell growth inhibitory activity by the following method.
(§2) MCF 7 cells (4.5×10^4 cells/ml) prepared in RPMI 1640 medium containing 10% fetal calf serum, 10 μg/ml insulin and 10^-8 M estradiol are put into wells of a 96-well microtiter plate in the amount of 0.1 ml per each well. After incubation at 37° C. overnight in CO2 -incubator, 0.05 ml each of a test sample appropriately diluted with the culture medium is added to each well. In the case of contact for 72 hours, the cells are further cultured in CO2 -incubator, and then the culture supernatant is removed and the wells are washed once with PBS(-). Thereafter, 0.1 ml of fresh medium is added to each well, followed by culturing at 37° C. for 72 hours in CO2 -incubator. After the culture supernatant is removed, 0.1 ml of the culture medium containing 0.02% Neutral Red is added to each well, followed by culturing at 37° C. for one hour in CO2 -incubator, whereby the cells are stained. Then, the culture supernatant is removed and the cells are washed once with physiological saline. The pigment is extracted with 0.001N HCl/30% ethanol and absorption is measured at 550 nm with a microplate reader. By comparing the absorption of intact cells with those of the cells treated with a test compound in known concentrations, the concentration of the test compound at which growth of the cells is inhibited 50% is calculated as IC50.
(3) HeLaS3 cell growth inhibition test:
HeLaS3 cells (3×10^4 cells/ml) prepared in MEM medium containing 10% fetal calf serum and 2 mM glutamine are put into wells of a 96-well microtiter plate in the amount of 0.1 ml per each well.
Thereafter, the test is carried out in the same manner as in (1).
For `COC(=O)[C@@]1(O)C[C@H]2O[C@]1(C)n1c3ccccc3c3c4c(c5c6cc(O)ccc6n2c5c31)C(=O)NC4` (relative stereo) [Compound 15], the IC50 was determined as 0.48 µg/mL (≈ 0.993 µM).

In the case of `C[C@]12O[C@H](C[C@]1(O)CO)n1c3ccccc3c3c4c(c5c6ccccc6n2c5c31)CNC4=O` (relative stereo) [Compound 20], the IC50 amounted to 0.07 µg/mL (≈ 0.159 µM).

For `CC12OC(CC1O)n1c3ccccc3c3c4c(c5c6ccccc6n2c5c31)CNC4=O` (stereo not drawn) [Compound 48], the IC50 was 0.72 µg/mL (≈ 1.76 µM).

Still in this test, the particulars now being: Homo sapiens, HeLa S3; HeLaS3 cells, contact for 72 hours; read-out: cell growth inhibitory activity IC50, HeLaS3.
On to `C[C@]12O[C@H](C[C@]1(O)C(=O)NO)n1c3ccccc3c3c4c(c5c6ccccc6n2c5c31)CNC4=O` (relative stereo) [Compound 1], for which the IC50 came to 0.59 µg/mL (≈ 1.26 µM).

Turning to `C[C@]12O[C@H](C[C@]1(O)C(N)=O)n1c3ccccc3c3c4c(c5c6ccccc6n2c5c31)CNC4=O` (relative stereo) [Compound 2], the IC50 is 0.22 µg/mL (≈ 0.486 µM).

With `C[C@]12O[C@H](C[C@]1(O)C(=O)NCCO)n1c3ccccc3c3c4c(c5c6ccccc6n2c5c31)CNC4=O` (relative stereo) [Compound 3], the IC50 was found to be 0.95 µg/mL (≈ 1.91 µM).

Turning to `CCOC(=O)[C@@]1(O)C[C@H]2O[C@]1(C)n1c3ccccc3c3c4c(c5c6ccccc6n2c5c31)C(=O)NC4` (relative stereo) [Compound 4], the IC50 is 0.6 µg/mL (≈ 1.25 µM).

As for `COC(=O)[C@@]1(O)C[C@H]2O[C@]1(C)n1c3ccccc3c3c4c(c5c6ccccc6n2c5c31)C(=O)N(Cl)C4` (relative stereo) [Compound 5], the IC50 came out at 0.51 µg/mL (≈ 1.02 µM).

`COC(=O)[C@@]1(O)C[C@H]2O[C@]1(C)n1c3ccccc3c3c4c(c5c6cc(Br)ccc6n2c5c31)C(=O)NC4` (relative stereo) [Compound 7]: the IC50 came to 0.15 µg/mL (≈ 0.275 µM).

`C[C@]12O[C@H](C[C@]1(O)CN=[N+]=[N-])n1c3ccccc3c3c4c(c5c6ccccc6n2c5c31)CNC4=O` (relative stereo) [Compound 29]: the IC50 is 0.44 µg/mL (≈ 0.947 µM).

With `C[C@]12O[C@H](C[C@]1(O)CN)n1c3ccccc3c3c4c(c5c6ccccc6n2c5c31)CNC4=O` (relative stereo) [Compound 30], the IC50 was 0.07 µg/mL (≈ 0.16 µM).

`CC12OC(CC13CO3)n1c3ccccc3c3c4c(c5c6ccccc6n2c5c31)CNC4=O` (stereo not drawn) [Compound 36]: the IC50 stood at 0.08 µg/mL (≈ 0.19 µM).

A further test concerns COLO320DM cells. The test can be described thus: COLO320DM cell growth inhibition test. The format is cell-based. The settings on record: Homo sapiens, COLO 320DM, read-out: cell growth inhibitory activity IC50, COLO320DM. On the procedure:
as §2, with “After” for “MCF 7 cells (4.5×10^4 cells/ml) prepared in RPMI 1640 medium containing 10% fetal calf serum, 10 μg/ml insulin and 10^-8 M estradiol are put into wells of a 96-well microtiter plate in the amount of 0.1 ml per each well. After”, “reader.” for “reader. By comparing the absorption of intact cells with those of the cells treated with a test compound in known concentrations, the concentration of the test compound at which growth of the cells is inhibited 50% is calculated as IC50.”
(4) COLO320DM cell growth inhibition test:
Thereafter, the test is carried out in the same manner as in (1) except that the cells are counted with a microcell counter.
For `C[C@]12O[C@H](C[C@]1(O)CO)n1c3ccccc3c3c4c(c5c6ccccc6n2c5c31)CNC4=O` (relative stereo) [Compound 20], the IC50 amounted to 0.05 µg/mL (≈ 0.114 µM).

Staying with this test, now noted: Homo sapiens, COLO 320DM; COLO320DM cells, cells counted with a microcell counter; read-out: cell growth inhibitory activity IC50, COLO320DM.
For the compound `CC12OC(CC13CO3)n1c3ccccc3c3c4c(c5c6ccccc6n2c5c31)CNC4=O` (stereo not drawn) [Compound 36], the IC50 was found to be 0.12 µg/mL (≈ 0.285 µM).

For another test, the system named is PC-10 cells. The test can be described thus: PC-10 cell growth inhibition test. The format is cell-based. The conditions noted are these: Homo sapiens, PC10, 72 h, read-out: cell growth inhibitory activity IC50, PC-10. Here is the method:
as §1, §2
(2) PC-10 cell growth inhibition test:
PC-10 cells (5×10^4 cells/ml) prepared in MEM medium containing 10% fetal calf serum and 2 mM glutamine are put into wells of a 96-well microtiter plate in the amount of 0.1 ml per each well.
Thereafter, the test is carried out in the same manner as in the MCF 7 cell growth inhibition test.
Consider `COC(=O)[C@@]1(O)C[C@H]2O[C@]1(C)n1c3ccccc3c3c4c(c5c6cc(O)ccc6n2c5c31)C(=O)NC4` (relative stereo) [Compound 15], for which the IC50 was 0.11 µg/mL (≈ 0.228 µM).

Turning to `C[C@]12O[C@H](C[C@]1(O)CO)n1c3ccccc3c3c4c(c5c6ccccc6n2c5c31)CNC4=O` (relative stereo) [Compound 20], the half-maximal inhibitory concentration (IC50) worked out at 0.11 µg/mL (≈ 0.25 µM).

With `CC12OC(CC1O)n1c3ccccc3c3c4c(c5c6ccccc6n2c5c31)CNC4=O` (stereo not drawn) [Compound 48], the IC50 is 0.48 µg/mL (≈ 1.17 µM).

The same test, now with this note: Homo sapiens, PC10; PC-10 cells, contact for 72 hours; read-out: cell growth inhibitory activity IC50, PC-10.
Consider `C[C@]12O[C@H](C[C@]1(O)C(=O)NO)n1c3ccccc3c3c4c(c5c6ccccc6n2c5c31)CNC4=O` (relative stereo) [Compound 1], for which the IC50 turned out to be 0.14 µg/mL (≈ 0.299 µM).

`C[C@]12O[C@H](C[C@]1(O)C(N)=O)n1c3ccccc3c3c4c(c5c6ccccc6n2c5c31)CNC4=O` (relative stereo) [Compound 2]: the IC50 was 0.03 µg/mL (≈ 0.0663 µM).

For `C[C@]12O[C@H](C[C@]1(O)C(=O)NCCO)n1c3ccccc3c3c4c(c5c6ccccc6n2c5c31)CNC4=O` (relative stereo) [Compound 3], the IC50 was found to be 0.68 µg/mL (≈ 1.37 µM).

For `CCOC(=O)[C@@]1(O)C[C@H]2O[C@]1(C)n1c3ccccc3c3c4c(c5c6ccccc6n2c5c31)C(=O)NC4` (relative stereo) [Compound 4], the half-inhibitory concentration (IC50) is over 1 µg/mL.

As for `COC(=O)[C@@]1(O)C[C@H]2O[C@]1(C)n1c3ccccc3c3c4c(c5c6ccccc6n2c5c31)C(=O)N(Cl)C4` (relative stereo) [Compound 5], the IC50 is 0.84 µg/mL (≈ 1.67 µM).

Take `COC(=O)[C@@]1(O)C[C@H]2O[C@]1(C)n1c3ccccc3c3c4c(c5c6cc(Br)ccc6n2c5c31)C(=O)NC4` (relative stereo) [Compound 7]: the IC50 was determined as 0.76 µg/mL (≈ 1.39 µM).

Turning to `C[C@]12O[C@H](C[C@]1(O)CN=[N+]=[N-])n1c3ccccc3c3c4c(c5c6ccccc6n2c5c31)CNC4=O` (relative stereo) [Compound 29], the IC50 was found to be 0.71 µg/mL (≈ 1.53 µM).

In the case of `C[C@]12O[C@H](C[C@]1(O)CN)n1c3ccccc3c3c4c(c5c6ccccc6n2c5c31)CNC4=O` (relative stereo) [Compound 30], the IC50 worked out at 0.04 µg/mL (≈ 0.0912 µM).

The test system of another test is MCF 7 cells. The test can be described thus: MCF 7 cell growth inhibition test. The format is cell-based. The settings on record: Homo sapiens, MCF7, 72 h, read-out: cell growth inhibitory activity IC50, MCF-7. On the procedure:
as §1
(1) MCF 7 cell growth inhibition test:
as §2
As to `C[C@]12O[C@H](C[C@]1(O)CO)n1c3ccccc3c3c4c(c5c6ccccc6n2c5c31)CNC4=O` (relative stereo) [Compound 20], the IC50 is 0.55 µg/mL (≈ 1.25 µM).

Still in this test, the particulars now being: Homo sapiens, MCF7; MCF-7 cells, contact for 72 hours; read-out: cell growth inhibitory activity IC50, MCF-7.
As to `CC12OC(CC13CO3)n1c3ccccc3c3c4c(c5c6ccccc6n2c5c31)CNC4=O` (stereo not drawn) [Compound 36], the IC50 is 0.52 µg/mL (≈ 1.23 µM).

The target in a further test is C-kinase (protein kinase C). The test is described as follows: C-Kinase inhibitory activity test. The format is biochemical. The settings on record: enzyme activity inhibited 50%.
`C[C@]12O[C@H](C[C@]1(O)C(=O)NO)n1c3ccccc3c3c4c(c5c6ccccc6n2c5c31)CNC4=O` (relative stereo) [Compound 1]: the “C-Kinase inhibitory activity IC50” value came to 0.005 µg/mL.

Turning to `C[C@]12O[C@H](C[C@]1(O)C(N)=O)n1c3ccccc3c3c4c(c5c6ccccc6n2c5c31)CNC4=O` (relative stereo) [Compound 2], the “C-Kinase inhibitory activity IC50” value was determined as 0.003 µg/mL.

`C[C@]12O[C@H](C[C@]1(O)C(=O)NCCO)n1c3ccccc3c3c4c(c5c6ccccc6n2c5c31)CNC4=O` (relative stereo) [Compound 3]: the “C-Kinase inhibitory activity IC50” value was determined as 0.018 µg/mL.

With `CCOC(=O)[C@@]1(O)C[C@H]2O[C@]1(C)n1c3ccccc3c3c4c(c5c6ccccc6n2c5c31)C(=O)NC4` (relative stereo) [Compound 4], the “C-Kinase inhibitory activity IC50” value came to 0.13 µg/mL.

As for `COC(=O)[C@@]1(O)C[C@H]2O[C@]1(C)n1c3ccccc3c3c4c(c5c6ccccc6n2c5c31)C(=O)N(Cl)C4` (relative stereo) [Compound 5], the “C-Kinase inhibitory activity IC50” value was 0.034 µg/mL.

In the case of `COC(=O)[C@@]1(O)C[C@H]2O[C@]1(C)n1c3ccccc3c3c4c(c5c6cc(Br)ccc6n2c5c31)C(=O)NC4` (relative stereo) [Compound 7], the “C-Kinase inhibitory activity IC50” value stood at 0.028 µg/mL.

Take `COC(=O)[C@@]1(O)C[C@H]2O[C@]1(C)n1c3ccccc3c3c4c(c5c6cc(O)ccc6n2c5c31)C(=O)NC4` (relative stereo) [Compound 15]: the “C-Kinase inhibitory activity IC50” value was 0.009 µg/mL.

Turning to `C[C@]12O[C@H](C[C@]1(O)CO)n1c3ccccc3c3c4c(c5c6ccccc6n2c5c31)CNC4=O` (relative stereo) [Compound 20], the “C-Kinase inhibitory activity IC50” value is 0.02 µg/mL.

Consider `C[C@]12O[C@H](C[C@]1(O)CN=[N+]=[N-])n1c3ccccc3c3c4c(c5c6ccccc6n2c5c31)CNC4=O` (relative stereo) [Compound 29], for which the “C-Kinase inhibitory activity IC50” value turned out to be 0.06 µg/mL.

On to `C[C@]12O[C@H](C[C@]1(O)CN)n1c3ccccc3c3c4c(c5c6ccccc6n2c5c31)CNC4=O` (relative stereo) [Compound 30], for which the “C-Kinase inhibitory activity IC50” value was 0.015 µg/mL.

Consider `CC12OC(CC13CO3)n1c3ccccc3c3c4c(c5c6ccccc6n2c5c31)CNC4=O` (stereo not drawn) [Compound 36], for which the “C-Kinase inhibitory activity IC50” value is 0.02 µg/mL.

Turning to `CC12OC(CC1O)n1c3ccccc3c3c4c(c5c6ccccc6n2c5c31)CNC4=O` (stereo not drawn) [Compound 48], the “C-Kinase inhibitory activity IC50” value was 0.022 µg/mL.

A word on the IC50: it is the point on the concentration scale where inhibition reaches its midpoint.
